Test results as given in patent US8580820B2, “Tubulysin compounds with high cytotoxicity, pharmaceutical compositions thereof, and method of use thereof” (Kemtech S.r.L., priority 2009, dated 2013).
Read-outs that look alike come from different tables or passages of the source.

What was measured:
[1] = test system: C6 (rat glioma); experiment: Cytotoxicity in vitro, cellular viability (ATPlite Perkin Elmer test), C6; assay type: cell-based; design: cellular viability (ATPlite Perkin Elmer test): unit not given here; details: for GI50: Rattus norvegicus
Description: (§1) The cytotoxic effects of the compounds of formula (A) were evaluated by treating […] with different concentrations of the compounds under screening. The following cell lines were used: A2780 (human ovarian carcinoma), HL60 (human leukaemia), C6 (rat glioma) and HT29 (adenocarcinoma of human colon). The cell lines have been obtained by ECACC (European Collection of Cell Cultures).
(§2) The cell lines have been cultured in 75 cm^2 flasks with culture medium DMEM (Dulbecco's Medium Eagle Modified, Sigma Aldrich®) and the following additives (Sigma Aldrich®): L-Glutamine 2 mM, 10% Fetal Bovine Serum, Penicillin/-Streptomycin, Fungizone, Gentamycin. The incubation was carried out in modified atmosphere incubators (37° C., 5% CO2). When cell confluence was obtained, the cells were propagated by dilution in a ratio 1:3/1:5 by using a Trypsin-EDTA 1× solution and then transferred into 96 well plates in the suitable culture medium. The cells were then treated for 72 hours with different concentrations (10^−13+10^−4 M) of the compounds under examination. For the tests in vitro the compounds obtained in the examples 1.15 and 6.8 were solubilised in dimethylsulphoxide (DMSO). All the tests were performed with a constant DMSO concentration equal to 0.1% by weight.
(§3) In order to control the cellular viability, the ATPlite test (Perkin Elmer) was used. The APTlite test evaluates the ATP production. APT is a marker of cellular viability as it is present in all the metabolically active cells. The test’ is based on the chemiluminiscence due to the ATP reaction with the luciferase and the D-luciferin. The emitted light is proportional to the ATP concentration. For the reading the Victor 3 instrument by Perkin Elmer was used.
(§4) Four readings were taken for each sample solution. The results (average values) for the cytotoxicity of the compounds of formula (A) obtained in examples 1.15 and 6.8 are reported respectively in Tables 1 and 2. It is noted that the GI50 values determined by means of the cellular viability values are lower than 2 nM. This confirms the high cytotoxicity of the compound of formula (A).

[2] = test system: A2780 (human ovarian carcinoma); experiment: Cytotoxicity in vitro, cellular viability (ATPlite Perkin Elmer test), A2780; assay type: cell-based; design: cellular viability (ATPlite Perkin Elmer test): unit not given here; details: for GI50: Homo sapiens
Description: as §1, §2, §3, §4

[3] = test system: HL60 (human leukaemia); experiment: Cytotoxicity in vitro, cellular viability (ATPlite Perkin Elmer test), HL60; assay type: cell-based; design: cellular viability (ATPlite Perkin Elmer test): unit not given here; details: for GI50: Homo sapiens
Description: as §1, §2, §3, §4

[4] = Cytotoxicity in vitro, cellular viability (ATPlite Perkin Elmer test), C6; assay type: cell-based, rat; design: cellular viability (ATPlite Perkin Elmer test): unit not given here; details: rat, C6 rat glioma cells, C6, 72 hours
Description: as §1, §2, §3, §4

[5] = test system: A2780, HL60, C6 and HT29 cell lines; experiment: Cytotoxicity in vitro, summary over the cell lines of example 14; assay type: cell-based, human; rat; details: all cell lines of Tables 1 and 2; read-out: GI50 values determined by means of the cellular viability values
Description: as §1
as §2, with “All the tests were performed with a constant DMSO concentration equal to 0.1% by weight.” left out
(§5) In order to control the cellular viability, the ATPlite test (Perkin Elmer) was used. […] For the reading the Victor 3 instrument by Perkin Elmer was used.
Four readings were taken for each sample solution. […]

[6] = test system: HT29 (adenocarcinoma of human colon); experiment: Cytotoxicity in vitro, cellular viability (ATPlite Perkin Elmer test), HT29; assay type: cell-based; design: cellular viability (ATPlite Perkin Elmer test): unit not given here; details: for cellular viability (ATPlite Perkin Elmer test): 72 hours
Description: as §1, §2, §3, §4

[7] = test system: cellular lines HL60, A 2780, C6; experiment: Cytotoxicity test in vitro on cellular lines (comparative examples 16.10, 17.10); assay type: cell-based, human; rat
Description: as §1
The cell lines have been cultured in 75 cm^2 flasks with culture medium DMEM (Dulbecco's Medium Eagle Modified, Sigma Aldrich®) and the following additives (Sigma Aldrich®): L-Glutamine 2 mM, 10% Fetal Bovine Serum, Penicillin/-Streptomycin, Fungizone, Gentamycin. The incubation was carried out in modified atmosphere incubators (37° C., 5% CO2). When cell confluence was obtained, the cells were propagated by dilution in a ratio 1:3/1:5 by using a Trypsin-EDTA 1× solution and then transferred into 96 well plates in the suitable culture medium. […]
as §5
The compound obtained in example 16.9 has been evaluated with the cytotoxicity test in vitro on cellular lines. […]
The cytotoxicity of the compound of the example 17.9 comparative was evaluated as described in example 16.10 comparative for the compound 16.9.

CC[C@H](C)[C@H](NC(=O)C1CCCCN1C)C(=O)N[C@H](C[C@@H](OC(C)=O)c1nc(C(=O)N[C@@H](Cc2ccccc2)C[C@H](C)C(=O)O)cs1)c1ccc(OC)cc1 (stereo partly drawn) [Example 16.9, (2S,4R)-4-(2-((1R,3R)-1-acetoxy-3-(4-methoxy-phenyl)-3-((2S,3S)-3-methyl-2-((R)-1-methylpiperidin-2-carbox-amido)pentanamido)propyl)thiazol-4-carboxamido)-2-methyl-5-phenylpentanoic acid, reference compound]
GI50 ([1]; cellular line C6, read-out: GI50): > 10000 nM | GI50 ([2]; cellular line A 2780, read-out: GI50): > 100000 nM | GI50 ([3]; cellular line HL 60, read-out: GI50): > 10000 nM

CC[C@H](C)[C@H](NC(=O)[C@H]1CCCCN1C)C(=O)N(CCOC)[C@H](C[C@@H](OC(C)=O)c1nc(C(=O)N[C@@H](Cc2ccccc2)C[C@H](C)C(=O)O)cs1)C(C)C [Example 6.8, (2S,4R)-4-(2-((1R,3R)-1-acetoxy-3-((2S,3R)—N(2-methoxyethyl)-3-methyl-2-(1-methylpiperidine-2-carboxamido)pentanamido)-4-methylpentyl)thiazol-4-carboxamido)-2-methyl-5-phenylpentanoic acid]
viability at 72 h ([4]; compound 10^−5 mole/litre): 20.2% | viability at 72 h ([4]; compound 10^−6 mole/litre): 19.6% | cellular viability (ATPlite Perkin Elmer test) ([1]; C6, compound 10^−4 mole/litre, 72 hours): 19.10 | cellular viability (ATPlite Perkin Elmer test) ([1]; C6, compound 10^−7 mole/litre, 72 hours): 20.70 | cellular viability (ATPlite Perkin Elmer test) ([1]; C6, compound 10^−8 mole/litre, 72 hours): 25.60 | cellular viability (ATPlite Perkin Elmer test) ([1]; C6, compound 10^−9 mole/litre, 72 hours): 39.57 | cellular viability (ATPlite Perkin Elmer test) ([1]; C6, compound 10^−10 mole/litre, 72 hours): 64.15 | cellular viability (ATPlite Perkin Elmer test) ([1]; C6, compound 10^−11 mole/litre, 72 hours): 96.68 | cellular viability (ATPlite Perkin Elmer test) ([1]; C6, compound 10^−12 mole/litre, 72 hours): 99.13 | cellular viability (ATPlite Perkin Elmer test) ([1]; C6, compound 10^−13 mole/litre, 72 hours): 101.2 | GI50 ([1]; C6, 72 hours, value is GI50 multiplied by 10^9, Table 2, read-out: GI50 × 10^9): 0.147 nM | GI50 [5]: < 2 nM | GI50 ([6]; Homo sapiens, HT-29, 72 hours, value is GI50 multiplied by 10^9, Table 2): 0.278 nM | cellular viability (ATPlite Perkin Elmer test) ([6]; compound 10^−4 mole/litre): 11.55 | cellular viability (ATPlite Perkin Elmer test) ([6]; compound 10^−5 mole/litre): 11.46 | cellular viability (ATPlite Perkin Elmer test) ([6]; compound 10^−6 mole/litre): 18.08 | cellular viability (ATPlite Perkin Elmer test) ([6]; compound 10^−7 mole/litre): 17.68 | cellular viability (ATPlite Perkin Elmer test) ([6]; compound 10^−8 mole/litre): 20.38 | cellular viability (ATPlite Perkin Elmer test) ([6]; compound 10^−9 mole/litre): 24.49 | cellular viability (ATPlite Perkin Elmer test) ([6]; compound 10^−10 mole/litre): 95.7 | cellular viability (ATPlite Perkin Elmer test) ([6]; compound 10^−11 mole/litre): 115.6 | cellular viability (ATPlite Perkin Elmer test) ([6]; compound 10^−12 mole/litre): 107.5 | cellular viability (ATPlite Perkin Elmer test) ([6]; compound 10^−13 mole/litre): 108.0 | GI50 ([2]; 72 hours, value is GI50 multiplied by 10^9, Table 2, read-out: GI50 × 10^9): 1.54 nM | cellular viability (ATPlite Perkin Elmer test) ([2]; compound 10^−4 mole/litre, 72 hours): 3.08 | cellular viability (ATPlite Perkin Elmer test) ([2]; compound 10^−5 mole/litre, 72 hours): 8.41 | cellular viability (ATPlite Perkin Elmer test) ([2]; compound 10^−6 mole/litre, 72 hours): 9.11 | cellular viability (ATPlite Perkin Elmer test) ([2]; compound 10^−7 mole/litre, 72 hours): 9.11 | cellular viability (ATPlite Perkin Elmer test) ([2]; compound 10^−8 mole/litre, 72 hours): 22.80 | cellular viability (ATPlite Perkin Elmer test) ([2]; compound 10^−9 mole/litre, 72 hours): 64.56 | cellular viability (ATPlite Perkin Elmer test) ([2]; compound 10^−10 mole/litre, 72 hours): 106.7 | cellular viability (ATPlite Perkin Elmer test) ([2]; compound 10^−11 mole/litre, 72 hours): 109.7 | cellular viability (ATPlite Perkin Elmer test) ([2]; compound 10^−12 mole/litre, 72 hours): 104.1 | cellular viability (ATPlite Perkin Elmer test) ([2]; compound 10^−13 mole/litre, 72 hours): 104.0 | cellular viability (ATPlite Perkin Elmer test) ([3]; HL60, compound 10^−4 mole/litre, 72 hours): 0.75 | cellular viability (ATPlite Perkin Elmer test) ([3]; HL60, compound 10^−5 mole/litre, 72 hours): 1.22 | cellular viability (ATPlite Perkin Elmer test) ([3]; HL60, compound 10^−6 mole/litre, 72 hours): 1.25 | cellular viability (ATPlite Perkin Elmer test) ([3]; HL60, compound 10^−7 mole/litre, 72 hours): 1.14 | cellular viability (ATPlite Perkin Elmer test) ([3]; HL60, compound 10^−8 mole/litre, 72 hours): 1.04 | cellular viability (ATPlite Perkin Elmer test) ([3]; HL60, compound 10^−9 mole/litre, 72 hours): 1.36 | cellular viability (ATPlite Perkin Elmer test) ([3]; HL60, compound 10^−10 mole/litre, 72 hours): 3.53 | cellular viability (ATPlite Perkin Elmer test) ([3]; HL60, compound 10^−11 mole/litre, 72 hours): 56.38 | cellular viability (ATPlite Perkin Elmer test) ([3]; HL60, compound 10^−12 mole/litre, 72 hours): 102.0 | cellular viability (ATPlite Perkin Elmer test) ([3]; HL60, compound 10^−13 mole/litre, 72 hours): 100.9 | GI50 ([3]; HL-60, HL60, 72 hours, value is GI50 multiplied by 10^9, Table 2, read-out: GI50 × 10^9): 0.0108 nM

CC[C@H](C)[C@H](NC(=O)[C@H]1CCCCN1C)C(=O)N[C@H](C[C@@H](OC(C)=O)c1nc(C(=O)N[C@@H](Cc2ccccc2)C[C@H](C)C(=O)O)cs1)C1CCCCC1 [Example 17.9, (2S,4R)-4-(2-((1R,3R)-1-acetoxy-3-cyclohexyl-3-((2S,3S)-3-methyl-2-((R)-1-methyl-piperidin-2-carboxamido)pentanamido)propyl)thiazol-4-carboxamido)-2-methyl-5-phenyl pentanoic acid]
GI50 ([7]; Homo sapiens, HL60/A, evaluated as in example 16.10, cellular line not stated): 10 µM | times higher than the GI50 of the compounds of the invention ([7]; ratio of GI50 values): 10,000 times
